Data published in the METLIN SMRT retention time set (Domingo-Almenara et al. 2019).

assay: gradient 5% acetonitrile 3 min, to 50% in 2 min, to 85% in 15 min, held 3 min, 100 µL/min; conditions: column: Zorbax Extend-C18 2.1 x 50 mm; eluents: water / acetonitrile, 0.1% formic acid
How it was run: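 The system's dead and dwell volumes were 40 μL and 900 μL, with a Zorbax Extend-C18 column (2.1 × 50 mm, 1.8 μm) run at 100 μL/min in water and acetonitrile containing 0.1% formic acid each. Pure standards were analyzed in mixtures of ~100 molecules by HPLC–quadrupole time-of-flight mass spectrometry in positive and negative ionization mode. Retention time was assigned from computationally picked, manually inspected adduct peaks.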

RP-LC retention time [s] | Structure (SMILES)
604 | CC(=O)Nc1ccc(S(=O)(=O)Nc2ccc3c(c2)CCC(=O)N3C)cc1
711 | CCc1ccc(NC(=O)Cn2c(N3CCOCC3)nc(C)cc2=O)cc1
671 | Cc1nn(-c2ccccc2)c2c1-c1sc(C(=O)N3CCN(c4ccccn4)CC3)cc1CC2
768 | COc1ccc(-c2cn3ccn(-c4ccc(OC)cc4)c(=O)c3n2)cc1
1170 | COc1cccc(CNc2ncccc2-c2nnc(-c3ccccc3)o2)c1
1140 | Cc1nc2cc(-c3noc(-c4cccc(Cl)c4)n3)ccc2n(C)c1=O
880 | COc1ccc(N2CC(c3noc(-c4ccccc4Cl)n3)CC2=O)cc1OC (stereo not drawn)
910 | CN1C(=O)c2cccnc2Sc2cc(NC(=O)c3cccc(C(F)(F)F)c3)ccc21
877 | Cc1cccc(NC(=O)N2CCC(n3cnc4cc(Cl)ccc4c3=O)CC2)c1
650 | Cc1cc(C)n(-c2nc(CC(=O)Nc3ccc(N(C)C)cc3)cs2)n1
945 | COc1ccc(S(=O)(=O)N2CCc3c(c(-c4nnc(-c5ccc(F)cc5)o4)nn3C)C2)cc1
593 | COc1ccc(NC(=O)c2cnc(N3CCN(C(C)C)CC3)nc2N)cc1
561 | CCC(=O)NCc1nc2c(n1CC)CN(S(=O)(=O)c1ccccc1F)CC2
963 | Cc1nc(Nc2ccc(F)cn2)sc1C(=O)NCCC1=CCCCC1
828 | COc1ccc(-c2csc(NC(=O)Cn3c(=O)oc4ccccc43)n2)cc1OC
912 | CCN1C(=O)C(C)(C(=O)NCc2ccc(C)cc2)Oc2cccnc21 (stereo not drawn)
1050 | COC(=O)c1ccc(-c2nc3cnccn3c2Nc2ccc(C)c(Cl)c2)cc1
875 | O=C(c1ccco1)N1CCCC1c1nc(-c2ccc(F)cc2)no1 (stereo not drawn)
764 | CCS(=O)(=O)Nc1ccc(C2=NN(C(=O)c3ccco3)C(c3cccs3)C2)cc1 (stereo not drawn)
702 | Cc1ccc(-c2ccc(-n3nc(C)c(S(=O)(=O)NCCN4CCOCC4)c3C)nn2)cc1C
1280 | Cc1nc(-c2ccc(-c3noc(COc4ccc(Cl)cc4)n3)cc2)cs1
814 | Cc1cc2c(=O)n(CC(=O)NCc3ccc(F)cc3Cl)ccc2s1
1150 | Cc1ccc(CC(=O)N2CCc3nc(-c4ccc(Cl)cc4)ncc3C2)cc1
671 | COc1ccc(-c2cc3c(=O)n(Cc4noc(CN(C)C5CCCCC5)n4)ccn3n2)cc1

RP-LC retention time [s] | Structure (SMILES)
1100 | Cc1ccc(-c2nnc(-c3ccccc3)o2)cc1S(=O)(=O)N1CCCCC1
584 | CC(=O)c1cccc(Nc2c(C(=O)N3CCOCC3)cnc3nc(C)ccc23)c1
846 | CC1=C(c2ccccc2)S(=O)(=O)N=C1N1CCCN(C(=O)c2cc(F)cc(F)c2)CC1
909 | CCn1c(=O)c2ccccc2n(Cc2nc(-c3ccccc3OC)no2)c1=O
1150 | CCc1sc(NC(=O)CCc2ccccc2)nc1-c1ccccc1
621 | COc1ccc(-c2noc(CN3CCN(c4ccccn4)CC3)n2)cc1
1260 | Fc1ccc(-c2csc(Cc3nc(-c4ccccc4Cl)no3)n2)cc1
1150 | O=C(NC1CCCCCC1)C1CCCN(c2ncc(-c3ccc(F)cc3)cn2)C1 (stereo not drawn)
750 | CCC(C)C(NC(=O)c1cccc(Cl)c1)C(=O)Nc1nc2ccccc2[nH]1 (stereo not drawn)
859 | CCc1ccc(NC(=O)C2CCCN2S(=O)(=O)c2ccc3c(c2)NC(=O)CO3)cc1 (stereo not drawn)
917 | CCOc1ccc(NC(=O)c2cc(C)n3nccc3n2)cc1
874 | Cn1c(=O)n(C)c2cc(S(=O)(=O)c3ccc(F)cc3)c(NC(=O)Cc3ccc(F)cc3)cc21
882 | O=C(Cn1c(=O)cc(-c2nc(C3CC3)no2)c2ccccc21)NCc1cccs1
742 | Cc1noc(C)c1CNC(=O)Cc1cccc(Cl)c1
964 | CCc1nc2ccccc2c(=O)n1Cc1noc(-c2ccc3c(c2)OCO3)n1
898 | Cc1ccccc1CNC(=O)C1(C)CCCN(C(=O)Nc2ccccc2)C1 (stereo not drawn)
959 | CC1CCN(S(=O)(=O)c2ccc3c(c2)CCCC(=O)N3CC(=O)Nc2ccc(F)cc2)CC1
824 | Cc1ccc(Cn2c(=O)n(CCNC(=O)c3ccc4c(c3)OCO4)c3ncccc32)cc1
924 | Clc1ccc(-c2nc(NC3CCCCC3)c3ccccc3n2)cc1
925 | O=S(=O)(c1cccc(Cl)c1)c1nnn2c1nc(N1CCCC1)c1sccc12
951 | COc1nc2ccccc2nc1N1CCCC(C(=O)NCc2ccco2)C1 (stereo not drawn)
887 | O=C(Nc1nnc(SCc2nnc(-c3cccc(F)c3)o2)s1)c1ccccc1
576 | Cc1cc2nn(CC(=O)NC(C)C)c(=O)n2c(-c2ccc(C(F)(F)F)cc2)n1
888 | CCOc1ccc(N(C)C(=O)Cn2cccc2-c2nnc(C3CC3)o2)cc1

The next lines start with the compound.

Structure (SMILES) | RP-LC retention time [s]
CCSc1nc2ccc(NS(=O)(=O)c3ccccc3F)cc2s1 | 964
Cc1cc(-c2c(C)sc(C)c2S(=O)(=O)Nc2ccc(C)c(C)c2)n[nH]1 | 1090
CN1C(=O)C(CC(=O)NCc2ccccn2)Sc2ncccc21 (stereo not drawn) | 762
CC(C)NC(=O)N1CCC2(CC1)NCCc1c2[nH]c2ccccc12 | 618
O=C(NC(c1ccccc1)c1nnc(N2CCOCC2)o1)C1CCCCC1 (stereo not drawn) | 735
O=C(CN1CC=C(c2cnn(-c3ccccc3)c2)CC1)N1CCN(c2ccccc2F)CC1 | 732
Cc1cc(C(F)F)n2nc(C(=O)Nc3ccc(C)c(C)c3)nc2n1 | 860
CCNc1cc(N2CCCC(CCC(=O)N3CCN(c4ncccn4)CC3)C2)ncn1 (stereo not drawn) | 624
Nc1cc(=O)nc(SCC(=O)NC2CCCCC2)n1-c1cccc(C(F)(F)F)c1 | 649
CCCNC(=O)N1CCCC(c2nn(C)c(=O)n2CC)C1 (stereo not drawn) | 602
NC(=O)C1CCN(C2CC(=O)N(c3ccccc3Sc3ccccc3)C2=O)CC1 (stereo not drawn) | 650
Cc1cc(C)cc(OCCNS(=O)(=O)c2ccc3c(c2)OCCO3)c1 | 934
COCC(C)(O)CNC(=O)Cc1cccc(C)c1 (stereo not drawn) | 621
CCCN(CC(=O)N(Cc1ccco1)CC1CCCO1)C(=O)c1ccc2c(c1)OCO2 (stereo not drawn) | 770
CNC(=O)[C@@H]1CN(C(=O)CCn2nc(C)cc2C)C[C@H]1c1n[nH]c(C)n1 | 554
CC1CCN(c2cc(-n3cnc(C(=O)N4CCC(N5CCCCC5)CC4)c3)ncn2)CC1 | 662
Cn1cc(S(=O)(=O)N2CCCCC2)cc1C(=O)Nc1ccccc1 | 960
COc1ccc(S(=O)(=O)N2CCC(C(=O)Nc3nnc(C4CCCO4)o3)CC2)cc1 (stereo not drawn) | 658
Cn1cccc(C(=O)NC2CC(=O)N(C3CC3)C2)c1=O (stereo not drawn) | 547
Cc1nnc(-c2ccc(S(=O)(=O)N3CCCC(C)C3)o2)o1 (stereo not drawn) | 836

Structure (SMILES) | RP-LC retention time [s]
COc1cc(NC(=O)c2cn(-c3cc(N4CCC(C)CC4)ncn3)cn2)cc(OC)c1 | 1110
COCCN1C(=O)c2ccccc2C(C(=O)NCCCN2CCCCC2C)C1c1cccs1 (stereo not drawn) | 624
O=C(Cn1cnc2nc(N3CCC(C(=O)NC4CC4)CC3)sc2c1=O)NCCC1=CCCCC1 | 698
O=C(Nc1ccc(C2(C(=O)NCC3CCCO3)CC2)cc1)c1cccs1 (stereo not drawn) | 753
COc1cccc(CNC(=O)C2(C)CCCN(C(=O)Nc3ccc(OC)c(OC)c3)C2)c1 (stereo not drawn) | 746
COc1cc(OC)cc(C(=O)Nc2ccc3c(c2)Sc2ncccc2C(=O)N3C)c1 | 858
CCc1nnc([C@@H]2CC(F)(F)CN2C(=O)COc2ccc(F)cc2)o1 | 800
O=C(NCCC1=CCCCC1)c1ccc2c(c1)NC(=O)C1CCCCN21 (stereo not drawn) | 930
CCOc1ccc(S(=O)(=O)[C@H]2CS(=O)(=O)C[C@@H]2N2CCC(C(=O)OC)CC2)cc1 | 858
Cn1cc(CN2CCC(C(=O)NCCCN3CCCCC3)CC2)c2cc(Cl)ccc21 | 586
Cc1ncc2c(n1)C[C@@H]1CC[C@H]2N1C(=O)c1ccnn1C | 584
Cc1noc(C)c1S(=O)(=O)N1CCC(Cc2nncn2-c2ccccc2)CC1 | 780
Cn1c(C(=O)NCCCN2CCCC2=O)cc2c(=O)oc3ccccc3c21 | 668
O=C(NCC1CCCO1)c1cc(S(=O)(=O)N2CCCCCC2)ccc1Cl (stereo not drawn) | 842
COc1cccc(NC(=O)C2CC(=O)N(c3ccc4c(c3)CCN4C(=O)C3CCC3)C2)c1 (stereo not drawn) | 817
CC(=O)NCCc1csc(C2CCCN(C(=O)C3CCOC3)C2)n1 (stereo not drawn) | 603
CCOC(=O)C1=C(C)N(CC(=O)NC2CCCC2)c2ncnn2C1c1ccccc1 (stereo not drawn) | 666
Cc1csc(NC(=O)Cn2c(=O)n(C(C)C)c3ccc(-c4noc(C)n4)cc32)n1 | 780
CC(C)CCNC(=O)CN1C(=O)CCn2nc(-c3cn(C)c4ccccc34)cc21 | 807
CCS(=O)(=O)c1nc2ccc(NS(=O)(=O)c3cc(OC)ccc3OC)cc2s1 | 833
